Experimental data published in patent US20260034173A1, “USE OF MANGANESE-CONTAINING COMPOUND IN REDUCING LEVEL OF URIC ACID OF MAMMALIAN SUBJECT” (Shanghai Shiqu Pharmaceutical Technology Co., Ltd., priority 2022, published 2026).

How the values were obtained:
[1] = tested on: oteracil potassium and adenine induced hyperuricemia model mice; test: Oteracil potassium and adenine induced hyperuricemia model mice; type: in vivo, KM mice; settings: day 6; allopurinol 50 mg/L drinking water, febuxostat 5 mg/kg/day gavage, manganese oxides 1.16 w/w % in diet
Description: Oteracil potassium and adenine are known to be model drugs capable of inducing hyperuricemia in mice. Specifically, oteracil potassium is a urate oxidase inhibitor that can inhibit further metabolism of uric acid in mice, thereby increasing the concentration of uric acid in the blood of mice; adenine can damage the kidneys, thereby reducing the excretion of uric acid from the kidneys of mice. […] Six days after the beginning of the experiment, 24-hour urine of each group of mice was collected and uric acid content in the urine was detected by the uric acid assay kit to investigate the effects of various experimental substances on the amount of uric acid excreted in the urine of mice.
The control group was fed with basic mouse diet the first day (i.e. the day of the experiment) to the seventh day after the start of the experiment, and the other groups were fed with modeling mouse diet (4.4 w/w % oteracil potassium and 0.44 w/w % adenine were added into the basic mouse diet) for inducing hyperuricemia. […] The uric acid level in urine was measured using a uric acid assay kit (Solarbio, Beijing, China), and the amount of uric acid excreted through urine in 24 hours was calculated based on the urine volume.

[2] = tested on: urate oxidase knockout (UOX KO) mice; test: Experiment on urate oxidase knockout (UOX KO) mice; type: in vivo; settings: gavage daily; blood and 24-hour urine
Description: Urate oxidase knockout (UOX KO) mice aged 6 to 8 weeks were selected, and urine and blood were collected after one week of acclimation to test urine uric acid and blood uric acid levels. […] Mice were gavaged with corresponding drugs daily. After the start of drug administration, the blood of mice was collected every other week to prepare serum, and 24-hour urine was collected to detect the uric acid content in the urine using a uric acid assay kit.

[3] = tested on: oteracil potassium and hypoxanthine induced hyperuricemia model mice; test: Oteracil potassium and hypoxanthine induced hyperuricemia model mice; type: in vivo, C57BL/6J mice; settings: day 8; benzbromarone 10 mg/kg gavage, allopurinol 50 mg/L drinking water, manganese oxides 1.14 w/w % in diet
Experimental: Hypoxanthine can be metabolized into uric acid in the body, so it can also be used in combination with oteracil potassium as a model drug for inducing hyperuricemia in mice. In this example, the healthy mice were randomly divided into 7 groups, the mouse hyperuricemia model was established by administering oteracil potassium and hypoxanthine (they were injected intraperitoneally together) to 6 groups of mice, and 1 group of healthy mice injected intraperitoneally with normal saline was taken as the blank control group. The mice of the experimental groups were given the corresponding experimental substances according to the dosing regimen described in the following experimental method.
From the first day (i.e. the day of the experiment) to the eighth day after the start of the experiment, the blank control group was intraperitoneally injected with normal saline at 9:00 a.m. and 5:00 p.m. every day, and the remaining groups were intraperitoneally injected with modeling solution (100 mg/kg hypoxanthine+100 mg/kg oteracil potassium) at 9:00 am, and 5:00 p.m. every day. The benzbromarone group was administered with benzbromarone solution (10 mg/kg) by gavage at 10 am every day. […]

Row | Compound | amount of uric acid excreted in the urine within 24 hours (FIG. 20) [1] | reduction of uric acid in UOX KO mice [2] | serum uric acid level (FIG. 22) [3]
1 | Cc1nc(-c2ccc(OCC(C)C)c(C#N)c2)sc1C(=O)O [febuxostat] | at a high level | – | –
2 | Oc1ncnc2[nH]ncc12 [allopurinol] | at a high level | effective in reducing uric acid | significantly reduced
3 | CCc1oc2ccccc2c1C(=O)c1cc(Br)c(O)c(Br)c1 [benzbromarone] | – | – | significantly reduced
